# Like-named read-outs stand apart in the source and are kept apart here. Starred links: 1 amine or outer side, 2 acyl side, 3 side chain; linkers in the order of their positions; H or OH if unused. Positions of bridges follow the written chain, without caps; N, C: chain ends. Residues, ends and D or L forms follow the SMILES beside them. Groups on a side chain read outwards from the residue. *: point of attachment. C20 diacid = O=C(O)CCCCCCCCCCCCCCCCCCC(=O)*; γGlu = O=C(O)[C@H](CCC(=O)[*:2])N[*:1]; AEEA = NCCOCCOCC(=O)O
# Test: Assay (IV) determination of solubility
# Assay type: physicochemical
# Protocol: ASSAY (IV)—Determination of Solubility
# The polypeptide was dissolved in water at ˜500 nmol/ml and mixed 1:1 with a series of buffers (100 mM glycylglycine pH 3.0, 100 mM glycylglycine pH 4.0, 100 mM glycylglycine pH 5.0, 100 mM bistrispropane pH 6.0, 100 mM bistrispropane pH 6.5, 100 mM bistrispropane pH 7.0, 100 mM bistrispropane pH 7.5, 100 mM bistrispropane pH 8.0). After 18 hours at room temperature the samples were centrifuged and the polypeptide concentration determined by HPLC.
# [1] = pH 3, pH 3.0, read-out: Solubility pH 3.0
# [2] = pH 4, pH 4.0, 18 hours at room temperature, Table 2, read-out: Solubility pH 4.0
# [3] = pH 4, pH 4.0, read-out: Solubility pH 4.0
# [4] = pH 5, pH 5.0, read-out: Solubility pH 5.0
# [5] = pH 6, pH 6.0, read-out: Solubility pH 6.0
# [6] = pH 6.5, pH 6.5, read-out: Solubility pH 6.5
# [7] = pH 7, pH 7.0, read-out: Solubility pH 7.0
# [8] = pH 7.5, pH 7.5, read-out: Solubility pH 7.5
solubility [1],solubility [2],solubility [3],solubility [4],solubility [5],solubility [6],solubility [7],solubility [8],"solubility (pH 8, pH 8.0, read-out: Solubility pH 8.0)",SMILES
> 200 µM,> 200 µM,> 200 µM,> 200 µM,> 200 µM,105 µM,37 µM,57 µM,117 µM,"CC[C@H](C)[C@H](NC(=O)[C@@H]1CCCN1C(=O)CNC(=O)[C@H](Cc1ccccc1)NC(=O)[C@H](CC(N)=O)NC(=O)[C@H](CO)NC(=O)[C@H](CO)NC(=O)[C@H](CO)NC(=O)[C@H](Cc1c[nH]cn1)NC(=O)[C@H](Cc1c[nH]cn1)NC(=O)[C@H](CC(C)C)NC(=O)[C@H](Cc1ccccc1)NC(=O)[C@H](CCC(=O)O)NC(=O)[C@H](C)NC(=O)[C@H](CC(C)C)NC(=O)[C@H](CCCNC(=N)N)NC(=O)[C@H](CCC(N)=O)NC(=O)[C@@H](NC(=O)[C@H](C)NC(=O)[C@@H]1CSSC[C@H](NC(=O)[C@H](CCCCN)NC(=O)COCCOCCNC(=O)COCCOCCNC(=O)CC[C@H](NC(=O)CCCCCCCCCCCCCCCCCCC(=O)O)C(=O)O)C(=O)N[C@@H](CC(N)=O)C(=O)N[C@@H]([C@@H](C)O)C(=O)N[C@@H](C)C(=O)N[C@@H]([C@@H](C)O)C(=O)N1)[C@@H](C)O)C(=O)N[C@@H](CC(C)C)C(=O)N1CCC[C@H]1C(=O)N1CCC[C@H]1C(=O)N[C@H](C(=O)N[C@@H](CC(N)=O)C(=O)N[C@H](C(=O)NCC(=O)N[C@@H](CO)C(=O)N[C@@H](Cc1c[nH]cn1)C(=O)N[C@H](C(=O)N[C@@H](Cc1ccc(O)cc1)C(N)=O)[C@@H](C)O)C(C)C)[C@@H](C)O [Example 118, N-alpha-[2-(2-{2-[2-(2-{2-[(S)-4-Carboxy-4-(19-carboxyheptadecanoylamino)butyrylamino]ethoxy}ethoxy)acetylamino]ethoxy}ethoxy)acetyl]-[Glu14,His17,Ser21,His35]-pramlintide] ({C20 diacid-γGlu-AEEA-AEEA}-KCNTATCATQRLAEFLHHSSSNFGPILPPTNVGSHTY-NH2; disulfide 2-7)"
> 200 µM,> 200 µM,> 200 µM,> 200 µM,1 µM,1 µM,1 µM,1 µM,,"CC[C@H](C)[C@H](NC(=O)[C@@H]1CCCN1C(=O)CNC(=O)[C@H](Cc1ccccc1)NC(=O)[C@H](CC(N)=O)NC(=O)[C@H](CCCCNC(=O)COCCOCCNC(=O)COCCOCCNC(=O)CC[C@H](NC(=O)CCCCCCCCCCCCCCCCCCC(=O)O)C(=O)O)NC(=O)[C@H](CO)NC(=O)[C@H](CO)NC(=O)[C@H](Cc1c[nH]cn1)NC(=O)[C@@H](NC(=O)[C@H](CC(C)C)NC(=O)[C@H](Cc1ccccc1)NC(=O)[C@H](CCC(=O)O)NC(=O)[C@H](C)NC(=O)[C@H](CC(C)C)NC(=O)[C@H](CCCNC(=N)N)NC(=O)[C@H](CCC(N)=O)NC(=O)[C@@H](NC(=O)[C@H](C)NC(=O)[C@@H]1CSSC[C@H](NC(=O)[C@@H](N)CCCCN)C(=O)N[C@@H](CC(N)=O)C(=O)N[C@@H]([C@@H](C)O)C(=O)N[C@@H](C)C(=O)N[C@@H]([C@@H](C)O)C(=O)N1)[C@@H](C)O)C(C)C)C(=O)N[C@@H](CC(C)C)C(=O)N[C@@H](CO)C(=O)N[C@@H](CCCNC(=N)N)C(=O)N[C@H](C(=O)N[C@@H](CC(N)=O)C(=O)N[C@H](C(=O)NCC(=O)N[C@@H](CO)C(=O)N[C@@H](Cc1c[nH]cn1)C(=O)N[C@H](C(=O)N[C@@H](Cc1ccc(O)cc1)C(N)=O)[C@@H](C)O)C(C)C)[C@@H](C)O [Example 147, N-epsilon21-[2-(2-{2-[2-(2-{2-[(S)-4-Carboxy-4-(19-carboxyheptadecanoylamino)butyrylamino]ethoxy}ethoxy)acetylamino]ethoxy}ethoxy)acetyl]-[Glu14,Lys21,Ser28,Arg29,His35]-pramlintide] (H-KCNTATCATQRLAEFLVHSSK([AEEA-AEEA-γGlu-C20 diacid])NFGPILSRTNVGSHTY-NH2; disulfide 2-7)"
